Patent US11440905B2, “Biheterocyclic compound” (SUMITOMO PHARMA CO., LTD., priority 2016, dated 2022)
Structures can show the parent of a compound that is named as a salt.

Columns and labels:
[1] = test system: dry eye-model rat associated with the dysfunction of corneal nerves; experiment: Drug evaluation for the dysfunction of corneal nerves in dry eye rat model (Test 4); type: in vivo; details: lacrimal gland excision plus streptozotocin 55 mg/kg i.p.; eye drop 1 μL per shot, 6 times per day, 4 weeks; 0.3% HA, 3% DQS, 0.1% Example 3
Description: Drug Evaluation for the Dysfunction of Corneal Nerves in Dry Eye Rat Model
Male SD rat was anesthetized with inhalational isoflurane. The exorbital lacrimal gland thereof was excised, and at the same day, streptozotocin was administered intraperitoneally to the rat (55 mg/kg) to prepare a dry eye-model rat associated with the dysfunction of corneal nerves. Several weeks after the operation, 0.3% HA ophthalmic solution, 3% DQS ophthalmic solution, and 0.1% the ophthalmic solution of the present compound (Example 3) were administered to the rat in an awareness at 1 μL per shot, 6 times per day, for 4 weeks.
The cornea of the rat was softly held by hand. The drug effect for the dysfunction of corneal nerves was evaluated through blink reflex by contacting the cornea with the nylon filament of cochet-bonnet corneal esthesiometer. First, the tip of the nylon filament (length: 60 mm, diameter: 0.12 mm) was made to almost-vertically contact with the center of cornea, and the nylon filament was made to curve a little. […]
The statistical significance for the drug effect was evaluated by confirming that P value is less than 5% in Student's t test between the intact group and the PBS group, and then carrying out Student's t test between the intact group and the present compound group. […]

[2] = target: T1, mouse semaphorin 3A (Sema3A) (Mus musculus, UniProt O08665); experiment: Inhibitory activity for the collapse activity caused by Sema3A (growth cone collapse assay, Test 1); type: cell-based; details: 1 μM test compound; chick embryo dorsal root ganglion; 3 units/mL mouse Sema3A; smaller value = more potent inhibition; read-out: residual ratio (%) of Sema3A activity (collapse assay)
T1 sequence (O08665 21-772): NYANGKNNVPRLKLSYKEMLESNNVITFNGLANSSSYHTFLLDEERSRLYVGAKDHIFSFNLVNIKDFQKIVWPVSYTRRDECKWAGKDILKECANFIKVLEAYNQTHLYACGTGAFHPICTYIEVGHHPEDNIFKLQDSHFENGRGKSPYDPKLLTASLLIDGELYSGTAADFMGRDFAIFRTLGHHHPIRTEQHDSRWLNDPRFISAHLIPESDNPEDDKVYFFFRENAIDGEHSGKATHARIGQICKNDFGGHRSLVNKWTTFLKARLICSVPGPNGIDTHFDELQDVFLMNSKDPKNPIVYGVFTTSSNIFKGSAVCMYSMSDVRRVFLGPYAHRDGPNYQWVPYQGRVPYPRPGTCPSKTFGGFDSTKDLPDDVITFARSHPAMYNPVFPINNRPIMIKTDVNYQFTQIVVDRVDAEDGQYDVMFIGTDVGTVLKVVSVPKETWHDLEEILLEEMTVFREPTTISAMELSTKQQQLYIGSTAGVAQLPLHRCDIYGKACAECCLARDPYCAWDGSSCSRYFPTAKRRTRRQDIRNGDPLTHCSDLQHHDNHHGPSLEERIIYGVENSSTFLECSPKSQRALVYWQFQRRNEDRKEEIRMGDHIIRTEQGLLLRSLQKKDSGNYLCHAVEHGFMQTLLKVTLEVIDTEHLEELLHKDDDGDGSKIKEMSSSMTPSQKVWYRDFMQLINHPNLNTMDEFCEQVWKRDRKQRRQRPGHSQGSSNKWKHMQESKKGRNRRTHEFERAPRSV
Description: Inhibitory Activity for the Collapse Activity Caused by Sema3A
96 well-plate (SUMITOMO BAKELITE CO., LTD.) which was beforehand coated with polylysine was further coated with laminin (10 μL laminin, at room temperature, for 1 hour). To each well was added 100 μL of a medium (F12 medium containing 10% fetal bovine serum, 20 ng/mL NGF, 100 unit/mL penicillin, and 100 μg/mL streptomycin). Dorsal root ganglion harvested from 7-8 day-old chick embryo was inoculated thereto, and the culture medium was cultivated under the condition of 5% CO2 and 37° C. for 16-20 hours. And then, each test compound in various concentrations was added to the medium, each test medium was cultivated for 30 minutes, 3 units/mL mouse semaphorin 3A (Sema3A) was added to each medium, and then each test medium was cultivated for more 30 minutes. Then, glutaraldehyde was added to the medium, in which the final concentration of glutaraldehyde was 1%. The medium was left to stand at room temperature for 15 minutes to make the tissue fragment fixed, and the ratio of the retracted growth cone was measured under a microscope.

[3] = test system: dry eye-model rat (exorbital lacrimal gland excised); experiment: Drug evaluation for corneal disorder in dry eye-model rat (Test 3); type: in vivo; details: eye drop 1 μL per shot, 6 times per day, 4 weeks
Description: (Test 3) Drug Evaluation for Corneal Disorder in Dry Eye-Model Rat
A model rat whose exorbital lacrimal gland is excised is generally used as a model for evaluating the drug efficacy for corneal disorder caused by dry eye. As for corneal disorder of the rat, hyaluronic acid (HA) and diquafosol sodium (DQS) which are existing drugs, and the present compound (Example 3) were administered to the rat, and each efficacy thereof was evaluated.
Male SD rat was anesthetized with inhalational isoflurane, and the exorbital lacrimal gland thereof was excised to prepare a dry eye-model rat (the conditions to prepare the dry eye-model rat can be changed as necessary, for example, by combining the excision of exorbital lacrimal gland with the medication of streptozotocin or the like). […]
The site of corneal disorder was stained with a fluorescein (FITC) solution, and the extent of the disorder was evaluated with the score gained from the following method. […]
The statistical significance for the drug effect was evaluated by nonparametric Tukey's multiple comparison test, in which the result of each test group was compared with that of the control (intact) group which was not operated by excising exorbital lacrimal gland.

[4] = target: T2, mouse Sema3A binding to CHO cells stably-expressing mouse neuropilin (Mus musculus, UniProt O08665); experiment: Inhibitory activity for the neuropilin-binding activity caused by Sema3A (Test 2); details: 1 h, AP-Sema3A, read-out: residual ratio (%) of avidity (Sema3A-neuropilin binding); for remaining activity at 100 µM: 100 μM test compound, smaller value = more potent binding inhibition
T2 construct: host or cells: CHO cells stably expressing the neuropilin partner
T2 sequence (O08665 21-772): T1 sequence (O08665 21-772)
Description: (Test 2) Inhibitory Activity for the Neuropilin-Binding Activity Caused by Sema3A
To each well of 96 well-plate (IWAKI) was seeded CHO cells stably-expressing mouse neuropilin, the cells were cultivated in F12 medium (10% fetal bovine serum, 100 units/mL penicillin, and 100 μg/mL streptomycin) under the condition of 5% CO2 and 37° C. for 18 hours. And then, the culture medium was removed, and mouse Sema3A which included each test compound and alkaline phosphatase (AP) in various concentrations was added thereto, and the culture was reacted at room temperature for more one hour. Then, the reaction solution was removed, the residual cells were washed with HBSS solution (0.25% BSA) and dissolved in a solution (10 mM Tris including 1% Triton X-100) at 65° C. for one hour, and the AP activity thereof was measured.

Structure (SMILES)	remaining activity at 100 µM [4] [%]	other results
Cn1cc(-c2coc3cc(O)c(O)c(C(=O)OCc4cn(CC(=O)N[C@@H](CCC(=O)O)C(=O)O)nn4)c3c2=O)c(=O)c2cc(O)c(O)cc21 [Example 3, N-({4-[({[3-(6,7-Dihydroxy-1-methyl-4-oxo-1,4-dihydroquinolin-3-yl)-6,7-dihydroxy-4-oxo-4H-chromen-5-yl]carbonyl}oxy)methyl]-1H-1,2,3-triazol-1-yl}acetyl)-L-glutamic acid]		therapeutic effect for the dysfunction of corneal nerves (corneal perception, blink reflex, Cochet-Bonnet esthesiometer) [1]: marked therapeutic effect; remaining activity at 1 µM [2]: 4%; therapeutic effect for corneal disorder caused by dry eye (fluorescein staining score 0-3) ([3]; 0.3% HA, 3% DQS, Example 3 ophthalmic solution, compared with intact group): potent therapeutic effect; improvement of corneal disorder compared with the vehicle-administration group (PBS) ([3]; ** denotes p<0.01): significant improvement
Cn1cc(-c2coc3cc(O)c(O)c(C(=O)OCCOCCC(=O)O)c3c2=O)c(=O)c2cc(O)c(O)cc21 [Example 20, 3-[2-({[3-(6,7-Dihydroxy-1-methyl-4-oxo-1,4-dihydroquinolin-3-yl)-6,7-dihydroxy-4-oxo-4H-chromen-5-yl]carbonyl}oxy)ethoxy]propanoic acid]	56.5	
Cn1cc(-c2coc3cc(O)c(O)c(C(=O)OCCOCCC(=O)N[C@@H](CCC(=O)O)C(=O)O)c3c2=O)c(=O)c2cc(O)c(O)cc21 [Example 21, N-{3-[2-({[3-(6,7-Dihydroxy-1-methyl-4-oxo-1,4-dihydroquinolin-3-yl)-6,7-dihydroxy-4-oxo-4H-chromen-5-yl]carbonyl}oxy)ethoxy]propanoyl}-L-glutamic acid]	58.5	
Cn1cc(-c2coc3cc(O)c(O)c(C(=O)OCCN(CC(=O)O)CC(=O)O)c3c2=O)c(=O)c2cc(O)c(O)cc21 [Example 22, 2,2′-{[2-({[3-(6,7-Dihydroxy-1-methyl-4-oxo-1,4-dihydroquinolin-3-yl)-6,7-dihydroxy-4-oxo-4H-chromen-5-yl]carbonyl}oxy)ethyl]imino}-di-acetic acid]	62.1	
CN1CCN(C)C(COC(=O)c2c(O)c(O)cc3occ(-c4cn(C)c5cc(O)c(O)cc5c4=O)c(=O)c23)C1 (stereo not drawn) [Example 25, (1,4-Dimethylpiperazin-2-yl)methyl 3-(6,7-dihydroxy-1-methyl-4-oxo-1,4-dihydroquinolin-3-yl)-6,7-dihydroxy-4-oxo-4H-chromene-5-carboxylate hydrochloride]	90.5	
Cn1ccnc1COC(=O)c1c(O)c(O)cc2occ(-c3cn(C)c4cc(O)c(O)cc4c3=O)c(=O)c12 [Example 26, (1-Methyl-1H-imidazol-2-yl)methyl 3-(6,7-dihydroxy-1-methyl-4-oxo-1,4-dihydroquinolin-3-yl)-6,7-dihydroxy-4-oxo-4H-chromene-5-carboxylate hydrochloride]		remaining activity at 10 µM ([4]; 10 μM test compound (footnote *)): 97.8%
Cn1cc(-c2coc3cc(O)c(O)c(C(=O)OCCN4CCC(O)C4)c3c2=O)c(=O)c2cc(O)c(O)cc21 (stereo not drawn) [Example 28, 2-(3-Hydroxypyrrolidin-1-yl)ethyl 3-(6,7-dihydroxy-1-methyl-4-oxo-1,4-dihydroquinolin-3-yl)-6,7-dihydroxy-4-oxo-4H-chromene-5-carboxylate]	87.1	
Cn1cc(-c2coc3cc(O)c(O)c(C(=O)OCCOCCOCCOCCOCCO)c3c2=O)c(=O)c2cc(O)c(O)cc21 [Example 29, 14-Hydroxy-3,6,9,12-tetraoxatetradec-1-yl 3-(6,7-dihydroxy-1-methyl-4-oxo-1,4-dihydroquinolin-3-yl)-6,7-dihydroxy-4-oxo-4H-chromene-5-carboxylate]	49.3	
COC(=O)CCOCCOC(=O)c1c(O)c(O)cc2occ(-c3cn(C)c4cc(O)c(O)cc4c3=O)c(=O)c12 [Example 31, 2-(3-Methoxy-3-oxopropoxy)ethyl 3-(6,7-dihydroxy-1-methyl-4-oxo-1,4-dihydroquinolin-3-yl)-6,7-dihydroxy-4-oxo-4H-chromene-5-carboxylate]	69.4	
